# Read-outs that look alike come from different tables or passages of the source.
# What was measured:
# CB2 receptor = molecular target: T1, CB2 receptor (Mus musculus, UniProt P47936); test: CB2 receptor binding, [3H] CP-55,940 displacement, mouse spleen membranes; details: for Ki: mouse spleen membranes, [3H] CP-55,940, read-out: Kl CB2 (converted); for selectivity for the CB2 receptor: binding selectivity CB2 versus CB1, from the results in the TABLES
# T1 construct: membranes were prepared from frozen mouse spleen; from tissue; host or cells: mouse spleen
# Procedure: (§1) The materials were tested for CB2 receptor binding affinity and for CB1 receptor affinity (to determine selectivity for the CB2 receptor). As used herein, “binding affinity” is represented by the IC50 value which is the concentration of an analog required to occupy the 50% of the total number (Bmax) of the receptors. The lower the IC50 value the higher the binding affinity.
# (§2) The treated membranes were subsequently used in the binding assay described below. Approximately 30 μg of membranes were incubated in silanized 96-well microtiter plate with TME containing 0.1% essentially fatty acid-free bovine serum albumin (BSA), 0.8 nM [^3H] CP-55,940, and various concentrations of test materials at […] for 1 hour. The samples were filtered using Packard Filtermate 196 and Whatman GF/C filterplates and washed with wash buffer (TME) containing 0.5% BSA. Radioactivity was detected using MicroScint 20 scintillation cocktail added directly to the dried filterplates, and the filterplates were counted using a Packard Instruments Top-Count. Nonspecific binding was assessed using 100 nM CP-55,940. Data collected from three independent experiments performed with duplicate determinations was normalized between 100% and 0% specific binding for [^3H] CP-55,940, determined using buffer and 100 nM CP-55,940. The normalized data was analyzed using a 4-parameter nonlinear logistic equation to yield IC50 values. Data from at least two independent experiments performed in duplicate was used to calculate IC50 values which were converted to Ki values using the assumptions of Cheng et al, Relationship Between the Inhibition Constant (Ki) and the concentration of Inhibitor which causes 50% Inhibition (IC50) of an Enzymatic Reaction, Biochem. Pharmacol., 22, 3099–3102, (1973), which is incorporated by reference herein.
# For the CB2 receptor binding studies, membranes were prepared from frozen mouse spleen essentially according to the procedure of P. R. Dodd et al, A Rapid Method for Preparing Synaptosomes: Comparison with Alternative Procedures, Brain Res., 226, 107–118 (1981) which is incorporated by reference herein. Silanized centrifuge tubes were used throughout to minimize receptor loss due to adsorption. The CB2 binding assay was conducted in the same manner as for the CB1 binding assay. The binding affinities (Ki) were also expressed in nanomoles (nM).
# CB1 receptor = molecular target: T2, CB1 receptor (Rattus norvegicus, UniProt P20272); test: CB1 receptor binding, [3H] CP-55,940 displacement, rat forebrain membranes; details: for Ki: rat forebrain membranes, 0.8 nM [3H] CP-55,940, read-out: Kl CB1; for selectivity for the CB1 receptor: binding selectivity CB1 versus CB2, from the results in the TABLES
# T2 construct: membranes were prepared from rat forebrain membranes; from tissue; host or cells: rat forebrain
# Procedure: as §1
# For the CB1 receptor binding studies, membranes were prepared from rat forebrain membranes according to the procedure of P. R. Dodd et al, A Rapid Method for Preparing Synaptosomes: Comparison with Alternative Procedures, Brain Res., 107–118 (1981). The binding of the novel analogues to the CB1 cannabinoid receptor was assessed as described in W. A. Devane et al, Determination and Characterization of a Cannabinoid Receptor in a Rat Brain, Mol. Pharmacol., 34, 605–613 (1988) and A. Charalambous et al, 5′-azido Δ^8 THC: A Novel Photoaffinity Label for the Cannabinoid Receptor, J. Med. Chem., 35, 3076–3079 (1992) with the following changes. The above articles are incorporated by reference herein.
# Membranes, previously frozen at −80° C., were thawed on ice. To the stirred suspension was added three volumes of TME (25 mM Tris-HCl buffer, 5 mM MgCl2 and 1 mM EDTA) at a pH 7.4. The suspension was incubated at 4° C. for 30 min. At the end of the incubation, the membranes were pelleted and washed three times with TME.
# as §2
# T1 sequence (P47936 whole entry): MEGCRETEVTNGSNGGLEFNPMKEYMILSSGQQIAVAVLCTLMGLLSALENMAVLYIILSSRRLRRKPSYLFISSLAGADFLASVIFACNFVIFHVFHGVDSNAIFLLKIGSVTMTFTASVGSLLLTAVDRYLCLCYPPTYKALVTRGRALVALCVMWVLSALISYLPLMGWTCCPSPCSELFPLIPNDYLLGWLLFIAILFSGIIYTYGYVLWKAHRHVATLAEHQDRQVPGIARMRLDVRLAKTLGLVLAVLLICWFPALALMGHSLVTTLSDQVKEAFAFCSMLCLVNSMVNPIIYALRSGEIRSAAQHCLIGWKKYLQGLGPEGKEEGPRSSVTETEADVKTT
# T2 sequence (P20272 whole entry): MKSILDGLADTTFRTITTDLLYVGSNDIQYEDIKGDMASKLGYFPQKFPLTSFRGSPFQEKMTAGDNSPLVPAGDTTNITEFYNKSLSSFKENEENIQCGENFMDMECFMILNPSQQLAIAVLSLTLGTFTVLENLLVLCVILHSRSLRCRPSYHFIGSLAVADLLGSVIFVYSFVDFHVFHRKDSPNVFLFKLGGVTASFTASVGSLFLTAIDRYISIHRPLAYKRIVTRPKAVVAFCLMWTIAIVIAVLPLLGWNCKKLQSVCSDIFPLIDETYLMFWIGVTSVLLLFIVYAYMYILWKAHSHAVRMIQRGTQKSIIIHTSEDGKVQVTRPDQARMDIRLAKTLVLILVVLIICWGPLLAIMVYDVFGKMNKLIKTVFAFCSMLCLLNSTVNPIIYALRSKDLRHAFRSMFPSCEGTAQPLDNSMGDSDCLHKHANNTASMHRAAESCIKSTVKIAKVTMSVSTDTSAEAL
SMILES,Ki (CB2 receptor; TABLE 2) [nM],Ki (CB1 receptor; TABLE 2) [nM],"Ki (CB2 receptor; TABLE 1, racemic samples) [nM]","Ki (CB1 receptor; TABLE 1, racemic samples) [nM]",further results
O=C(c1ccccc1I)c1cn(CCCCCO)c2ccccc12 [AM693],526,835,,,
Cc1c(C(=O)c2ccccc2I)c2ccccc2n1CCCCCO [AM690],1970,4850,,,
CN1CCCCC1Cn1cc(C(=O)c2cc(N=C=S)ccc2I)c2ccc(N=C=S)cc21 (racemic) [AM2223],,,29.9,64.8,
CCCCCCCn1c(C)c(C(=O)c2ccccc2I)c2ccccc21 [AM672],1510,1600,,,
CN1CCCCC1Cn1cc(C(=O)c2cccc3ccccc23)c2ccc([N+](=O)[O-])cc21 (racemic) [AM1218],,,3.98,11.2,
Cc1c(C(=O)c2ccccc2I)c2ccc(N=C=S)cc2n1CC1CCCCN1C (racemic) [AM1216],,,25.2,210,
O=C(c1cccc2ccccc12)c1cn(CCCCN=C=S)c2ccccc12 [AM1291],1800,2960,,,
CC(=O)OCCCCn1cc(C(=O)c2cccc3ccccc23)c2ccccc21 [AM1282],101,133,,,
O=C(c1cccc2ccccc12)c1cn(CCCCI)c2ccccc12 [AM1288],10.5,1.3,,,selectivity for the CB1 receptor (CB1 receptor): high selectivity for the CB1 receptor
CCCCCn1cc(C(=O)c2cc(N)ccc2I)c2ccccc21 [AM1203],88.9,63.6,,,
Cc1ccc(S(=O)(=O)OCCCCn2cc(C(=O)c3cccc4ccccc34)c3ccccc32)cc1 [AM1286],1290,1510,,,
O=C(c1cccc2ccccc12)c1cn(CCCI)c2ccccc12 [AM1292],18.1,3.1,,,
O=C(c1cccc2ccccc12)c1cn(CCCCO)c2ccccc12 [AM1283],196,117,,,
CCCCn1c(C)c(C(=O)c2ccccc2I)c2ccccc21 [AM683],281,272,,,
Cc1c(C(=O)c2ccccc2I)c2ccccc2n1CCCCCN=C=S [AM2230],29.5,195,,,selectivity for the CB2 receptor (CB2 receptor): high selectivity for the CB2 receptor
CC(=O)OCCCn1cc(C(=O)c2cccc3ccccc23)c2ccccc21 [AM1284],103,127,,,
CC(=O)OCCCCCn1c(C)c(C(=O)c2ccccc2I)c2ccccc21 [AM689],1020,2280,,,
CCCCCn1c(C)c(C(=O)c2ccccc2I)c2ccccc21 [AM669],38.6,47.2,,,
CN1CCCCC1Cn1cc(C(=O)c2cccc3ccccc23)c2ccc(N=[N+]=[N-])cc21 (racemic) [AM1224],,,0.73,20.2,
CCCCCn1cc(C(=O)c2cc([N+](=O)[O-])ccc2I)c2ccccc21 [AM1202],22.9,98.9,,,
Cc1c(C(=O)c2cccc3ccccc23)c2ccc([N+](=O)[O-])cc2n1CC1CCCCN1C (stereo not drawn) [AM1221],,,0.28,52.3,
O=C(c1ccccc1I)c1cn(CCCCCI)c2ccccc12 [AM698],315,136,,,
CC(=O)OCCCCCn1cc(C(=O)c2cccc3ccccc23)c2ccc(N)cc21 [AM1236],559,1130,,,
Cc1c(C(=O)c2cccc3ccccc23)c2ccc(N=[N+]=[N-])cc2n1CC1CCCCN1C (racemic) [AM1231],,,34.2,31.2,
CCCCCCn1c(C)c(C(=O)c2ccccc2I)c2ccccc21 [AM682],693,332,,,
CCCCCn1cc(C(=O)c2cc(I)ccc2I)c2ccccc21 [AM1206],150,105,,,
O=C(c1cccc2ccccc12)c1cn(CCCCCO)c2cc([N+](=O)[O-])ccc12 [AM1234],197,77.6,,,

SMILES,Ki (CB2 receptor; TABLE 2) [nM],Ki (CB1 receptor; TABLE 2) [nM],"Ki (CB2 receptor; TABLE 1, racemic samples) [nM]","Ki (CB1 receptor; TABLE 1, racemic samples) [nM]",further results
O=C(c1cccc2ccccc12)c1cn(CCCCCO)c2ccccc12 [AM2202],111,33.1,,,
N#CCCCCn1cc(C(=O)c2cccc3ccccc23)c2ccccc21 [AM2232],1.48,0.28,,,
CN1CCCCC1Cn1cc(C(=O)c2cccc3ccccc23)c2ccc(N=C=S)cc21 (racemic) [AM1217],,,81.5,255,
O=C(c1ccccc1I)c1cn(CCCCCN=C=S)c2ccccc12 [AM1201],110,106,,,
O=C(c1ccc([N+](=O)[O-])c2ccccc12)c1cn(CCCCI)c2ccccc12 [AM2210],11.3,1.8,,,
O=C(c1cccc2ccccc12)c1cn(CCCCCN=C=S)c2ccccc12 [AM2204],24.4,7.5,,,
CN1CCCCC1Cn1cc(C(=O)C23CC4CC(CC(C4)C2)C3)c2ccccc21 (stereo not drawn) [AM1248],,,332,100,
Cc1c(C(=O)c2ccccc2)c2ccc(N=C=S)cc2n1CC1CCCCN1C (racemic) [AM684],,,44.8,181,
CCCCCn1c(C)c(C(=O)c2ccc(N(C)C)c3ccccc23)c2ccccc21 [AM1256],18.6,4.74,,,
O=C(c1ccccc1I)c1cn(CCCCCF)c2ccccc12 [AM694],1.44,0.08,,,selectivity for the CB1 receptor (CB1 receptor): high selectivity for the CB1 receptor
O=C(c1cccc2ccccc12)c1cn(CCCCCF)c2cc(I)ccc12 [Am1230],2.4,1.1,,,
CN1CCCCC1Cn1cc(C(=O)c2cccc3ccccc23)c2ccccc21 (stereo not drawn) [AM1296],,,3.88,7.57,
[N-]=[N+]=Nc1ccc(C(=O)c2cn(CCCCI)c3ccccc23)c2ccccc12 [AM2213],30,3,,,
Nc1ccc2c(C(=O)c3cccc4ccccc34)cn(CCCCCO)c2c1 [AM1237],244,837,,,selectivity for the CB2 receptor (CB2 receptor): high selectivity for the CB2 receptor
Cc1c(C(=O)c2ccccc2I)c2ccc(N=[N+]=[N-])cc2n1CC1CCCCN1C (racemic) [AM1215],,,21.9,40.7,
CCCCCn1cc(C(=O)c2ccccc2I)c2ccccc21 [AM679],49.5,13.5,,,
CC(=O)OCCCCCn1cc(C(=O)c2cccc3ccccc23)c2ccc([N+](=O)[O-])cc21 [AM1233],154,142,,,
CCCCCn1cc(C(=O)c2cc(N=C=S)ccc2I)c2ccccc21 [AM1204],3350,5660,,,
Cc1c(C(=O)c2cccc3ccccc23)c2ccc(N)cc2n1CC1CCCCN1C (racemic) [AM1225],,,38.5,440,
CN1CCCCC1Cn1cc(C(=O)c2ccc([N+](=O)[O-])c3ccccc23)c2ccccc21 (stereo not drawn) [AM1299],,,13.5,12.4,
O=C(c1cccc2ccccc12)c1cn(CCCCCF)c2cc([N+](=O)[O-])ccc12 [AM1235],20.4,1.5,,,selectivity for the CB1 receptor (CB1 receptor): high selectivity for the CB1 receptor
Cc1c(C(=O)c2ccccc2I)c2ccccc2n1CCCCCI [AM2229],46.2,116,,,
CN1CCCCC1Cn1cc(C(=O)c2cccc3ccccc23)c2ccccc21 (stereo not drawn) [AM1220],,,73.4,3.88,
Cc1c(C(=O)c2ccccc2I)c2ccc(N)cc2n1CC1CCCCN1C (racemic) [AM665],,,20.3,206,
CN1CCCCC1Cn1cc(C(=O)c2cc3ccc4cccc5ccc(c2)c3c45)c2ccccc21 (racemic) [AM1253],,,126,60.3,
CCCCCn1cc(C(=O)c2cc(N=[N+]=[N-])ccc2I)c2ccccc21 [AM1205],196,117,,,

# — patent US7241799B2, “Cannabimimetic indole derivatives” (University of Connecticut, priority 1999, dated 2007)
